Tests used:
false pimpernel [1] = assay: Test Example 2: herbicidal efficacy on rice paddy weeds post-emergence; type: in vivo, Lindernia pyxidaria; settings: 21 days after treatment
bulrush [2] = assay: Test Example 1: herbicidal efficacy on rice paddy weeds pre-emergence; type: in vivo, Scirpus juncoides; settings: 21 days
false pimpernel [3] = assay: as above; type: in vivo, Lindernia pyxidaria; settings: 21 days
[4] = system: paddy rice plant (cultivar: Nihonbare); assay: Test Example 3: phytotoxicity test for transplanted paddy rice plant; type: in vivo; settings: 21 days after treatment; for Phytotoxicity to paddy rice: transplanted rice
Outline: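 Clay loam soil was placed in a 75 cm^2 plastic pot and flooded to a water depth of 5 cm. Two Nihonbare paddy rice plants at the two-leaf stage were transplanted 1 cm deep and grown in a hot house. After treatment, pots stayed in the hot house for 21 days, and phytotoxicity was then graded against an untreated control.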

barnyard glass = assay: Test Example 2: herbicidal efficacy on rice paddy weeds post-emergence; type: in vivo, Echinochloa crus-galli; settings: 21 days after treatment
Outline: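 Efficacy on paddy weeds was scored on a 0 to 4 growth-inhibition scale: 4 for 90%-100%, 3 for 70%-89%, 2 for 40%-69%, 1 for 1%-39% and 0 for 0%. Barnyard glass was grown in clay loam in 75 cm^2 pots under 5 cm of water in a hot house. It was compared with untreated pots 21 days after treatment.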

bulrush [5] = assay: as above; type: in vivo, Scirpus juncoides; settings: 21 days after treatment
[6] = dosage 300 g/ha, post-emergence, one leaf stage
[7] = dosage 1000 g/ha, post-emergence, one leaf stage
[8] = dosage 1000 g/ha, treated 5 days after transplantation
[9] = dosage 1000 g/ha active ingredient, post-emergence treatment at one leaf stage, vs untreated control
[10] = dosage 1000 g/ha active ingredient, vs untreated control

Compound	False pimpernel post (herbicidal efficacy grade) (false pimpernel [1]; [6])	Bulrush pre (herbicidal efficacy grade) (bulrush [2]; dosage 300 g/ha)	False pimpernel pre (herbicidal efficacy grade) (false pimpernel [3]; dosage 300 g/ha)	Phytotoxicity to paddy rice ([4]; dosage 300 g/ha)	Burnyard grass post (herbicidal efficacy grade) (barnyard glass; [6])	Bulrush post (herbicidal efficacy grade) (bulrush [5]; [6])	False pimpernel post (herbicidal efficacy grade) (false pimpernel [1]; [7])	Bulrush pre (herbicidal efficacy grade) (bulrush [2]; dosage 1000 g/ha)	False pimpernel pre (herbicidal efficacy grade) (false pimpernel [3]; dosage 1000 g/ha)	Phytotoxicity to paddy rice [4, 8]	Burnyard grass post (herbicidal efficacy grade) (barnyard glass; [7])	Bulrush post (herbicidal efficacy grade) (bulrush [5]; [7])	further results
CC(C)CC1(C)CN(Cc2ccccc2NS(=O)(=O)C(F)(F)F)C(=O)O1 (racemic) [Compound 1-103]	4 (90%-100% of herbicidal efficacy or phytotoxicity)	4 (90%-100% of herbicidal efficacy or phytotoxicity)	4 (90%-100% of herbicidal efficacy or phytotoxicity)	2 (40%-69% of herbicidal efficacy or phytotoxicity)	4 (90%-100% of herbicidal efficacy or phytotoxicity)	4 (90%-100% of herbicidal efficacy or phytotoxicity)	–	–	–	–	–	–	–
COC(=O)N(c1ccccc1CN1CC2(CCCC2C)OC1=O)S(=O)(=O)C(F)(F)F (stereo not drawn) [Compound 1-162]	–	–	–	–	–	–	4 (90%-100% of herbicidal efficacy or phytotoxicity)	4 (90%-100% of herbicidal efficacy or phytotoxicity)	4 (90%-100% of herbicidal efficacy or phytotoxicity)	1 (1%-39% of herbicidal efficacy or phytotoxicity)	4 (90%-100% of herbicidal efficacy or phytotoxicity)	4 (90%-100% of herbicidal efficacy or phytotoxicity)	–
COCOc1cccc(CN2CC(C)(C)OC2=O)c1NS(=O)(=O)C(F)(F)F [1-212]	–	–	–	–	–	–	–	–	–	–	–	–	False pimpernel post (herbicidal efficacy grade) (false pimpernel [1]; [9]): 2 (40%-69% of herbicidal efficacy or phytotoxicity); Bulrush pre (herbicidal efficacy grade) (bulrush [2]; [10]): 4 (90%-100% of herbicidal efficacy or phytotoxicity); False pimpernel pre (herbicidal efficacy grade) (false pimpernel [3]; [10]): 1 (1%-39% of herbicidal efficacy or phytotoxicity); Phytotoxicity to paddy rice (grade) ([4]; dosage 1000 g/ha active ingredient, treated 5 days after transplantation, vs untreated control): 3 (70%-89% of herbicidal efficacy or phytotoxicity); Burnyard grass post (herbicidal efficacy grade) (barnyard glass; [9]): 3 (70%-89% of herbicidal efficacy or phytotoxicity); Bulrush post (herbicidal efficacy grade) (bulrush [5]; [9]): 2 (40%-69% of herbicidal efficacy or phytotoxicity)
CC1(C)OC(=O)N(Cc2ccccc2NS(=O)(=O)C(F)(F)F)C1(C)C [Compound 1-73]	–	–	–	–	–	–	4 (90%-100% of herbicidal efficacy or phytotoxicity)	4 (90%-100% of herbicidal efficacy or phytotoxicity)	4 (90%-100% of herbicidal efficacy or phytotoxicity)	4 (90%-100% of herbicidal efficacy or phytotoxicity)	4 (90%-100% of herbicidal efficacy or phytotoxicity)	4 (90%-100% of herbicidal efficacy or phytotoxicity)	–
CC(C)(C)OC(=O)NCC1CN(Cc2ccccc2NS(=O)(=O)C(F)(F)F)C(=O)O1 (racemic) [1-106]	2 (40%-69% of herbicidal efficacy or phytotoxicity)	4 (90%-100% of herbicidal efficacy or phytotoxicity)	2 (40%-69% of herbicidal efficacy or phytotoxicity)	0 (0% of herbicidal efficacy or phytotoxicity)	0 (0% of herbicidal efficacy or phytotoxicity)	4 (90%-100% of herbicidal efficacy or phytotoxicity)	–	–	–	–	–	–	–
CC(C)(C)C1(C)CN(Cc2ccccc2NS(=O)(=O)C(F)(F)F)C(=O)O1 (stereo not drawn) [Compound 1-69]	4 (90%-100% of herbicidal efficacy or phytotoxicity)	4 (90%-100% of herbicidal efficacy or phytotoxicity)	4 (90%-100% of herbicidal efficacy or phytotoxicity)	1 (1%-39% of herbicidal efficacy or phytotoxicity)	3 (70%-89% of herbicidal efficacy or phytotoxicity)	4 (90%-100% of herbicidal efficacy or phytotoxicity)	–	–	–	–	–	–	–
O=C1OC(CCl)CN1Cc1ccccc1NS(=O)(=O)C(F)(F)F (stereo not drawn) [Compound 1-39]	–	–	–	–	–	–	4 (90%-100% of herbicidal efficacy or phytotoxicity)	4 (90%-100% of herbicidal efficacy or phytotoxicity)	4 (90%-100% of herbicidal efficacy or phytotoxicity)	0 (0% of herbicidal efficacy or phytotoxicity)	2 (40%-69% of herbicidal efficacy or phytotoxicity)	4 (90%-100% of herbicidal efficacy or phytotoxicity)	–
CC(C)COC(=O)N(c1ccccc1CN1CC(C)(COc2ccccc2)OC1=O)S(=O)(=O)C(F)(F)F (stereo not drawn) [Compound 1-158]	–	–	–	–	–	–	4 (90%-100% of herbicidal efficacy or phytotoxicity)	4 (90%-100% of herbicidal efficacy or phytotoxicity)	4 (90%-100% of herbicidal efficacy or phytotoxicity)	1 (1%-39% of herbicidal efficacy or phytotoxicity)	4 (90%-100% of herbicidal efficacy or phytotoxicity)	4 (90%-100% of herbicidal efficacy or phytotoxicity)	–
CC1(c2ccccc2)CN(Cc2ccccc2NS(=O)(=O)C(F)(F)F)C(=O)O1 (stereo not drawn) [Compound 1-140]	4 (90%-100% of herbicidal efficacy or phytotoxicity)	4 (90%-100% of herbicidal efficacy or phytotoxicity)	4 (90%-100% of herbicidal efficacy or phytotoxicity)	1 (1%-39% of herbicidal efficacy or phytotoxicity)	2 (40%-69% of herbicidal efficacy or phytotoxicity)	4 (90%-100% of herbicidal efficacy or phytotoxicity)	–	–	–	–	–	–	–
CC(C)COC(=O)N(c1ccccc1CN1CC(C(C)(C)C)OC1=O)S(=O)(=O)C(F)(F)F (stereo not drawn) [Compound 1-34]	–	–	–	–	–	–	4 (90%-100% of herbicidal efficacy or phytotoxicity)	4 (90%-100% of herbicidal efficacy or phytotoxicity)	4 (90%-100% of herbicidal efficacy or phytotoxicity)	1 (1%-39% of herbicidal efficacy or phytotoxicity)	4 (90%-100% of herbicidal efficacy or phytotoxicity)	4 (90%-100% of herbicidal efficacy or phytotoxicity)	–
CC(C)COC(=O)N(c1ccccc1CN1CC(c2ccccc2)OC1=O)S(=O)(=O)C(F)(F)F (stereo not drawn) [Compound 1-42]	–	–	–	–	–	–	3 (70%-89% of herbicidal efficacy or phytotoxicity)	3 (70%-89% of herbicidal efficacy or phytotoxicity)	4 (90%-100% of herbicidal efficacy or phytotoxicity)	0 (0% of herbicidal efficacy or phytotoxicity)	4 (90%-100% of herbicidal efficacy or phytotoxicity)	3 (70%-89% of herbicidal efficacy or phytotoxicity)	–
O=C1OC2CCCCC2N1Cc1ccccc1NS(=O)(=O)C(F)(F)F (stereo not drawn) [Compound 1-47]	–	–	–	–	–	–	4 (90%-100% of herbicidal efficacy or phytotoxicity)	4 (90%-100% of herbicidal efficacy or phytotoxicity)	4 (90%-100% of herbicidal efficacy or phytotoxicity)	2 (40%-69% of herbicidal efficacy or phytotoxicity)	4 (90%-100% of herbicidal efficacy or phytotoxicity)	4 (90%-100% of herbicidal efficacy or phytotoxicity)	–
CCCC1COC(=O)N1Cc1ccccc1N(C(=O)OCC(C)C)S(=O)(=O)C(F)(F)F (stereo not drawn) [Compound 1-8]	2 (40%-69% of herbicidal efficacy or phytotoxicity)	4 (90%-100% of herbicidal efficacy or phytotoxicity)	4 (90%-100% of herbicidal efficacy or phytotoxicity)	0 (0% of herbicidal efficacy or phytotoxicity)	4 (90%-100% of herbicidal efficacy or phytotoxicity)	4 (90%-100% of herbicidal efficacy or phytotoxicity)	–	–	–	–	–	–	–
CC(C)COC(=O)N(c1ccccc1CN1CC(C)(COCc2ccccc2)OC1=O)S(=O)(=O)C(F)(F)F (stereo not drawn) [Compound 1-174]	–	–	–	–	–	–	4 (90%-100% of herbicidal efficacy or phytotoxicity)	4 (90%-100% of herbicidal efficacy or phytotoxicity)	4 (90%-100% of herbicidal efficacy or phytotoxicity)	1 (1%-39% of herbicidal efficacy or phytotoxicity)	4 (90%-100% of herbicidal efficacy or phytotoxicity)	4 (90%-100% of herbicidal efficacy or phytotoxicity)	–
CCCCC1COC(=O)N1Cc1ccccc1N(C(=O)OCC(C)C)S(=O)(=O)C(F)(F)F (stereo not drawn) [Compound 1-12]	2 (40%-69% of herbicidal efficacy or phytotoxicity)	4 (90%-100% of herbicidal efficacy or phytotoxicity)	2 (40%-69% of herbicidal efficacy or phytotoxicity)	0 (0% of herbicidal efficacy or phytotoxicity)	2 (40%-69% of herbicidal efficacy or phytotoxicity)	4 (90%-100% of herbicidal efficacy or phytotoxicity)	–	–	–	–	–	–	–

Source: patent US20080274892A1, “Novel Haloalkylsulfonanilide Derivative, Herbicide, and Method of Use Thereof” (priority 2005, published 2008)
